Columns and labels:
[1] = test system: Non-Small Lung Cancer Cells (NSLCs); assay: Cancer migration (wound healing) assay; format: cell-based; details: wound healing assay, dose-response curve; read-out: Anti-Cancer Activity (Inhibition of Cancer Cell Migration) IC50
Excerpt: The ability of 1,2,3-triazole derivatives according to the disclosure to inhibit cancer cell migration and proliferation in vitro can be measured, e.g., by a wound healing assay (Rodriguez et al., in Cell Migration: Developmental Methods and Protocols, Web et al., Guan ed. Humana Press 294, 23-29). This assay is based on the observation that, upon the creation of an artificial gap on a confluent cancer cell monolayer, the cells on the edge of the created gap will start migrating and proliferating until new cell-cell contacts are established (EXAMPLE 3).
Non-Small Lung Cancer Cells (NSLCs) migration rate was assessed in an in vitro wound healing assay. This assay is based on the observation that, upon the creation of an artificial gap on a confluent cell monolayer, the cells on the edge of the created gap will start migrating and proliferating until new cell-cell contacts are established.
A confluent cell layer is a prerequisite for starting this assay. Gap formation is done manually with a scrapper and cell proliferation and migration is determined recording a time-lapse video for 20 hr. with a time interval of 30 min. The microscopic pictures are manually analyzed for obtaining information about the proliferation and migration characteristics of the cultured cells and the image analysis detects the cell covered area.
NSLCs were cultured in Eagle's Minimum Essential Medium (ATCC-formulated medium, Catalog No. 30-2003) containing fetal bovine serum at 10% during several periods. Wound healing assays with supplemented medium containing 1,2,3-triazole derivatives were performed to evaluate the inhibitory effect on proliferation and migration of cancer cells.
In order to simulate as close as possible the in vivo cancer microenvironment, human plasma and calcium were added to the cell culture system to provide the hemostatic factors normally present in the cancer stroma. The previous day, cells were seeded with 10% FBS at a number that would provide 90% confluence the next day. On Day 0, a scratch (“a wound”) was performed in the middle of the well and the 10% FBS medium was replaced with 20% plasma, 20 mM calcium medium, with or without Derivative 1. 10% FBS medium was used as control in these experiments. “Wound healing” or closure of the scratch was assessed over a period of 4 days, and cell number in the wound area was quantified for each condition. Increasing amount of Derivative 1 (LTI6) was used to attain a dose-response curve.
The cell function effect of Derivative 1 was compared with Tranexamic Acid (TNA) and Caproic Acid (CA), commercially available and widely used anti-metastasis drugs.

[2] = test system: fibrinolysis mediated by tPA (plasminogen activation by tPA); assay: Fibrinolytic assay: one-step spectrophotometric clot lysis in human plasma; format: biochemical; details: concentration at which 50% of total fibrinolysis mediated by tPA is inhibited; human ACD plasma, clot triggered by TF, absorbance 340 nm; read-out: Anti-fibrinolytic (SERPIN) Activity IC50
Method: Fibrinolytic activity in human plasma was determined by a one-step spectrophotometric method (Gidron et al. (1978) J. Clin. Pathol. 31(1):54-57) with minor modifications (see EXAMPLE 2). In this method, fibrin clot formation in anticoagulant citrate dextrose (ACD) plasma samples obtained from healthy volunteers is triggered by tissue factor (TF) and can be quantified by spectrometry as a significant increase in basal plasma absorbance at 340 nm.
As shown in FIGS. 2A-2D, in the absence of tPA, plasma absorbance remains permanently elevated.
Fibrinolytic activity in human plasmas in the presence of derivatives according to the disclosure was determined by a one-step spectrophotometric method.
Fibrin clot formation in the anticoagulant acid citrate dextrose (ACD)-treated plasma obtained from healthy volunteers is triggered by tissue factor (TF) (Thromborel S, Siemens Healthineers) and quantifies by spectrophotometry at 340 nm (using a Molecular Devices SpectraMax® M2e Multimode Microplate Reader). When recombinant human Tissue Plasminogen Activator (tPA, final concentration of 5.2 μg/ml) is simultaneously added, fibrinolysis of the clot can be determined.
Fresh blood was extracted from healthy volunteers. ACD, to reach a 10% concentration, was instantly added to the extracted blood, to prevent any unwanted coagulation. After that, blood was centrifuged for 15 min at 1,000 g. Plasma was clearly separated from red blood cells. 3 mL aliquots of aspirated plasma were immediately frozen at −20° C.
4 mL of ddH2O was added to a vial of Thromborel S and mixed thoroughly for 2 min. and left at 4° C. 500 μL TF aliquots were used for each experiment.
Representative derivatives of the present disclosure (Nos. 1, 5, and 7) were diluted in DMSO (those with Boc) or ddH2O (those with HCl) to a final concentration of 10 mM. A solution containing 1 M Tris HCl, pH 7.5 (Fisher BioReagent) (Buffer A), 0.110 g of CaCl2) in 10 mL of ddH2O (Buffer B), and tPA (Abcam, 1.3 mg/mL added into the diluted derivative solution, final concentration in serum was 5.2 μg/mL), and the derivative was prepared in a total volume of 75 μL and added to untreated, flat, clear Costar® 96-well plates in triplicate. Absorbance at 340 nm at 37° C. for 30 min was recorded every 15 sec. The plates were shaken every 3 sec in between readings. Controls for basal plasma absorbance, basal coagulation absorbance and basal fibrinolytic activity absorbance were performed in every assay.
FIG. 2A show the results a control experiment displaying the ability of TF to cause fibrin clot formation in the absence and presence of t-PA. TF was able to cause fibrin clot formation evaluated as a significant increase of the basal plasma absorbance at 340 nm.

[3] = test system: Non-Small Lung Cancer Cells (NSLCs); assay: Trypan Blue Exclusion Test of cancer cell viability; format: cell-based; details: defined in text as concentration of derivative causing greater than 90% of the cells to die; read-out: Anti-Cancer Activity (Trypan Blue Exclusion Assay) IC50
Method: The ability of 1,2,3-triazole derivatives according to the disclosure to kill cancer cells can be measured, e.g., by Trypan Blue Exclusion Assay which measured cell death by starvation due to the presence of the derivative (see EXAMPLE 4). The results obtained using this assay with some representative 1,2,3-triazole derivatives according to the disclosure are shown below in Table 4.
The effect of Derivative 1 on cancer cell viability was determined using the Trypan Blue Exclusion Test (Stober (2001) (Curr. Protoc. Immunol., May; Appendix 3:Appendix 3B. doi: 10.1002/0471142735.ima03bs21). The viability of Non-Small Lung Cancer Cells (NSLCs) was assessed over a period of 15 days after the promotion of coagulation with or without 200 μM of 1,2,3-triazole derivative 1 and with or without 2% human plasma. Fresh 2% FBS medium corresponding to each condition was added every 3 days. Cell death was analyzed using Trypan blue staining. 2% FBS medium was used as control. Some representative results are shown in FIGS. 4A-4F.

NCCn1ccnn1 [Derivative 32]
IC50 [1]: 101 µM | IC50 [2]: 35 µM | IC50 [3]: 101 µM

N=C(N)c1cn(C2CCNCC2)nn1 [Derivative 33]
IC50 [1]: 82 µM | IC50 [2]: 29 µM | IC50 [3]: 184 µM

N=C(N)c1cn(CCCN)nn1 [Derivative 34]
IC50 [1]: 220 µM | IC50 [2]: 101 µM | IC50 [3]: 350 µM

N=C(N)c1cn(C2CCC(N)CC2)nn1 (stereo not drawn) [Derivative 35]
IC50 [1]: 450 µM | IC50 [2]: 290 µM | IC50 [3]: 670 µM

N=C(N)c1cn(CCN)nn1 [Derivative 36]
IC50 [1]: 278 µM | IC50 [2]: 119 µM | IC50 [3]: 415 µM

O=c1[nH]c(-c2cn(C3CCNCC3)nn2)no1 [compound 9, 3-(1-(piperidin-4-yl)-1H-1,2,3-triazol-4-yl)-1,2,4-oxadiazol-5(4H)-one]
IC50 [1]: 820 µM | IC50 [2]: 500 µM | IC50 [3]: 1100 µM

O=c1[nH]nc(-c2cn(C3CCNCC3)nn2)o1 [compound 12, 5-(1-(piperidin-4-yl)-1H-1,2,3-triazol-4-yl)-1,3,4-oxadiazol-2(3H)-one]
IC50 [1]: 65 µM | IC50 [2]: 25 µM | IC50 [3]: 110 µM

Source: US20210317113A1, “1,2,3-TRIAZOLE DERIVATIVES AND USES THEREOF” (Alxerion Biotech LLC, priority 2020, published 2021)
